ChEMBL document CHEMBL1138947, “Potent inhibitors of the Qi site of the mitochondrial respiration complex III” (J Med Chem, 2006)
Active and inactive are the calls of the source. The calls are words filed in the database; no cut-off is given here.

Assays:
[1] = tested on: Parastagonospora nodorum; assay: Inhibition of Septoria nodorum growth in wheat at 40 ppm; type: functional, organism-based
[2] = target: T1, Mitochondrial complex II; succinate dehydrogenase (Septoria tritici, UniProt G4XX53+O42772); assay: Inhibition of Septoria nodorum succinate dehydrogenase and Qi site of mitochondrial respiratory chain complex 3 by FMET2-3 assay; type: protein-complex assay, Parastagonospora nodorum
T1 sequence (G4XX53 whole entry): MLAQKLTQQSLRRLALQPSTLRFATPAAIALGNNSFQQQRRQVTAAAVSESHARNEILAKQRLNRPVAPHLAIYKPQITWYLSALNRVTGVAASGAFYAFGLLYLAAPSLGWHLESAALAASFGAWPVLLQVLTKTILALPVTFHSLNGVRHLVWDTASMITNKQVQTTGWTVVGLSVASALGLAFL
T1 sequence (O42772 whole entry): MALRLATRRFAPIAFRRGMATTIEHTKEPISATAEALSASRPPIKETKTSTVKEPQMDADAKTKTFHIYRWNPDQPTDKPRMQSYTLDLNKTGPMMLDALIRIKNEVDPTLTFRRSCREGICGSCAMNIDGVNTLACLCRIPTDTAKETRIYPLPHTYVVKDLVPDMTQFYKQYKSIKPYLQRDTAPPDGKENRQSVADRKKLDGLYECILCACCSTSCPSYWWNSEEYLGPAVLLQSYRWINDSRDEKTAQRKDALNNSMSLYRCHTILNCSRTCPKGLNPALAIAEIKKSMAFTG

[3] = tested on: Parastagonospora nodorum; assay: Inhibition of Septoria nodorum growth; type: functional

Compound: CCCCCC[C@H]1C(=O)O[C@H](C)[C@H](NC(=O)c2cccc(NC=O)c2O)C(=O)O[C@@H](C)[C@@H]1OC(=O)CC(C)C [ANTIMYCIN A]
- Activity [1]: inactive
- IC50 [2]: 2 nM
- GR50 [3]: 0.033 µM

Compound: O=C(Nc1ccc(Oc2ccc(C(F)(F)F)cc2)cc1)c1ccc2cn[nH]c2c1O
- Activity [1]: inactive
- IC50 [2]: 26 nM
- GR50 [3]: 0.343 µM

Compound: O=C(Nc1ccc(Oc2ccccc2)cc1)c1ccc2[nH]cnc2c1O
- Activity [1]: inactive
- IC50 [2]: > 30000 nM
- GR50 [3]: >30 µM

Compound: O=C(Nc1ccc(Oc2ccccc2)cc1)c1ccc2c[nH]nc2c1O
- Activity [1]: inactive
- IC50 [2]: 127 nM
- GR50 [3]: 1.909 µM

Compound: O=C(Nc1ccc(Oc2ccc(C(F)(F)F)cc2)cc1)c1ccc2[nH]nnc2c1O
- Activity [1]: inactive
- IC50 [2]: 5 nM
- GR50 [3]: >30 µM

Compound: O=C(Nc1ccc(Oc2ccc(C(F)(F)F)cc2)cc1)c1sc2c[nH]nc2c1O
- Activity [1]: inactive
- IC50 [2]: 26 nM
- GR50 [3]: 11.517 µM

Compound: O=C(Nc1ccc(Oc2ccccc2)cc1)c1ccc2nn[nH]c2c1O
- IC50 [2]: 32 nM

Compound: O=C(Nc1ccc(Oc2ccccc2)cc1)c1ccc2[nH]nnc2c1O
- Activity [1]: inactive
- GR50 [3]: >30 µM
